The test system of data set [1] is RAW 264.7 cells. As to the kind of experiment: Cytotoxicity on RAW 264.7 cells (CCK-8 method). In kind it is cell-based, mouse. On the technique in general: Tetrazolium dyes change colour on reduction, which living cells bring about.
Experimental: Mouse RAW 264.7 cells were purchased from American Type Culture Collection (Manassas, VA, USA), and cultivated in DMEM culture medium (Hyclone, South Logan, UT, USA) containing 10% fetal bovine serum (Hyclone, South Logan, UT, USA). Cells were collected and counted before use, and inoculated in a 96-well plate (Corning, NY, USA) at 1×10^5/well. […] 20 μl of CCK-8 solution (Dojindo, Kumamoto, Japan) was added at 30 min before the end of the culture. After the cultivation was ended, the absorbance OD value was measured at 450 nm (reference 650 nm) on amicroplate reader (Molecular Devices, Sunnyvale, CA, USA). The toxicity of the compound on RAW 264.7 cells was calculated by dividing the OD value of the test sample by the OD value of the cell control well, which was labeled as the cell survival rate M %.
In data set [2] the target is Human PDE4D catalytic domain (Homo sapiens (Human), UniProt Q08499). As to the kind of experiment: Scintillation Proximity Assay (SPA), inhibition of PDE4D catalytic domain activity. It is filed as biochemical. The note with it: Compound concentration: 1 μM; read-out: PDE4D enzyme activity inhibition rate %. On the technique in general: In a scintillation proximity assay essentially only radioactivity close to the scintillant gives light.

For data set [3], the system named is tumor necrosis factor-α secretion in RAW 264.7 cells. As to the kind of experiment: Inhibition of LPS-stimulated tumor necrosis factor-α secretion in RAW 264.7 cells (ELISA). Particulars: Mus musculus, RAW264.7, 4 h, read-out: Tumor necrosis factor-α inhibition rate/%. It is filed as cell-based, mouse.
Data set [4] concerns TNF-α secretion in PBMC. The experiment in a line: Inhibition of LPS-stimulated TNF-α secretion in PBMC (ELISA). Particulars: Homo sapiens, PBMC; for inhibition at 10 µM / inhibition at 1 µM: read-out: Inhibition rate %. In kind it is cell-based. (In general: ELISA stands for enzyme-linked immunosorbent assay.)
Text: According to the difference in cell density in human blood, PBMC (peripheral blood mononuclear cell, PBMC) was directly separated and purified by gradient centrifugation using lymphocyte separation fluid. The cell type was mononuclear cells in blood, mainly including lymphocytes (T/B), monocytes, macrophages, dendritic cells and other minor cell types, of which lymphocytes account for a large part, which can directly in vitro simulate the blood immune environment.
PBMC cells isolated from human blood were implanted into 96-well plates at 2*10^5/ml; compounds in gradients were added, with at least three replicates for each gradient; After the PBMCs were incubated at 37° C., 5% CO2 for 1 hour, LPS was added (the final concentration was 10 ug/ml) to stimulate PBMC to express TNF-α, and incubated for another 18-20 h at 37° C., 5% C02. The 96-well plate was collected. The background control with no stimulant and stimulation control wells were also set, with a total volume of 200 μl. The culture supernatant was collected by centrifugation, and the expression level of TNF-α in the culture supernatant was detected by ELISA.

Several values for one entry are separate records, joined by “and”; a condition that tells them apart may be missing. Equal entries are not always repeated.

Chain of Human PDE4D catalytic domain (Q08499 386-715): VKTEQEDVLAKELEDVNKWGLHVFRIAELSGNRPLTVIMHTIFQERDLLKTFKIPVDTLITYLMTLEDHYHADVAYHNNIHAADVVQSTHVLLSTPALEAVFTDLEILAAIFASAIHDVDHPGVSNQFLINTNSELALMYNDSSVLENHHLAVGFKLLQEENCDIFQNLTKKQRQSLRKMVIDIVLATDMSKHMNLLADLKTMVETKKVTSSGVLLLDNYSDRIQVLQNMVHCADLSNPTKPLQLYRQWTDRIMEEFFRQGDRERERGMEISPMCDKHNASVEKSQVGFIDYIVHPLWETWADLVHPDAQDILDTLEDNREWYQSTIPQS

With `COc1cc2c(cc1OC)[C@@H](CCc1c[nH]c3ccccc13)N(C=O)CC2` [(R)-A1, (R)-1-(2-(1H-indol-3-yl)ethyl)-6,7-dimethoxy-3,4-dihydroisoquinoline-2(1H)-formaldehyde], the Cell survival rate/% was 102.7% and 135.9% in data set [1] (RAW 264.7, 0.5 μM); 106.2% and 110.1% in data set [1] (RAW 264.7, 5 μM); 89.3% and 122.5% in data set [1] (RAW 264.7, 50 μM).

Regarding `CCOc1cc2c(cc1OC)CCN(C=O)[C@H]2CCc1c[nH]c2ccc(OC(F)(F)F)cc12` [(S)-C76, (S)-7-ethoxy-6-methoxy-1-(2-(5-trifluoromethoxy-1H-indol-3-yl)ethyl)-3,4-dihydroisoquinoline-2(1H)-formaldehyde], in data set [2], the inhibition at 1 µM was found to be 92.3%.

Regarding `CCOc1cc2c(cc1OC)CCN(C=O)[C@H]2Cc1c[nH]c2ccccc12` [(S)-C10, (S)-1-((1H-indol-3-yl)methyl)-7-ethoxy-6-methoxy-3,4-dihydroisoquinoline-2(1H)-formaldehyde], the Cell survival rate/% in data set [1] (RAW 264.7, 0.5 μM) came out at 89.1%; in data set [1] (RAW 264.7, 5 μM), 84.6%; in data set [1] (RAW 264.7, 50 μM) it was 104.1%.

Turning to `CCOc1cc2c(cc1OC)CCN(S(=O)(=O)c1ccc(F)cc1)[C@H]2CCc1c[nH]c2ccc(OC)cc12` [(S)-C58, (S)-7-ethoxy-6-methoxy-1-(2-(5-methoxy-1H-indol-3-yl)ethyl)-2-(4-fluorophenyl)sulfonyl-1,2,3,4-tetrahydroisoquinoline], in data set [2], the inhibition at 1 µM was 49.7%.

Regarding `COc1ccc2[nH]cc(CC[C@H]3c4cc(C(=O)O)c(OC)cc4CCN3C=O)c2c1` [(S)-C68, (S)-2-formyl-6-methoxy-1-(2-(5-methoxy-1H-indol-3-yl)ethyl)-1,2,3,4-tetrahydroisoquinoline-7-carboxylic acid], the inhibition at 1 µM in data set [2] came out at 83.1%.

For `CCOc1cc2c(cc1OC)CCN(C=O)[C@H]2Cc1c[nH]c2ccc(C)cc12` [(S)-C17, (S)-7-ethoxy-6-methoxy-1-((5-methyl-1H-indol-3-yl)methyl)-3,4-dihydroisoquinoline-2(1H)-formaldehyde], the inhibition at 0.5 µM in data set [3] was -32.2%. Moreover, in data set [3], the inhibition at 5 µM is -33.7%. Also, the inhibition at 50 µM in data set [3] is -13.4%. The Cell survival rate/% came to 101.7% in data set [1] (RAW 264.7, 0.5 μM); 87.3% in data set [1] (RAW 264.7, 5 μM); 103.9% in data set [1] (RAW 264.7, 50 μM). Further, the inhibition at 10 µM in data set [4] is 18.8%.

For the compound `CCOc1cc2c(cc1OC)CCN(C(=O)COC)[C@H]2Cc1c[nH]c2ccccc12` [(S)-C16, (S)-1-(1-((1H-indol-3-yl)methyl)-7-ethoxy-6-methoxy-3,4-dihydroisoquinoline-2(1H)-yl)-2-methoxyethane-1-one], the inhibition at 0.5 µM in data set [3] was found to be 2.6%. In addition, the inhibition at 5 µM in data set [3] is 12.7%. In data set [3], the inhibition at 50 µM amounted to 10.4%. Also, the Cell survival rate/% in data set [1] (RAW 264.7, 0.5 μM) was determined as 123.2%; in data set [1] (RAW 264.7, 5 μM) it was 133.1%; in data set [1] (RAW 264.7, 50 μM), 113.1%. In addition, the inhibition at 10 µM in data set [4] was found to be 1.89%.

The term IC50 denotes the point on the concentration scale where inhibition reaches its midpoint. In the case of `COc1cc2c(cc1OCC1CC1)[C@H](CCc1c[nH]c3ccccc13)N(C=O)CC2` [(S)-A3, (S)-1-(2-(1H-indol-3-yl)ethyl)-7-(cyclopropyl-methoxy)-6-methoxy-3,4-dihydroisoquinoline-2(1H)-formaldehyde], in data set [3], the inhibition at 0.5 µM is -2.9%, the inhibition at 5 µM is -3.5% and the inhibition at 50 µM amounted to 54.6%. The same compound displayed a Cell survival rate/% in data set [1] (RAW 264.7, 0.5 μM) of 110.9%. Besides, the Cell survival rate/% in data set [1] (RAW 264.7, 5 μM) worked out at 86.5%. In data set [1] (RAW 264.7, 50 μM), this compound had a Cell survival rate/% of 77.3%. In addition, in data set [4], the 50% inhibitory concentration (IC50) is 2.65 µM, the inhibition at 1 µM came out at 31.2% and the inhibition at 10 µM worked out at 76.6%.

For the compound `CCOc1cc2c(cc1OC)CCN(CCS(C)(=O)=O)[C@H]2Cc1c[nH]c2ccccc12` [(S)-C14, (S)-1-((1H-indol-3-yl)methyl)-7-ethoxy-6-methoxy-2-(2-(methylsulfonyl)ethyl)-1,2,3,4-tetrahydroisoquinoline], in data set [3], the inhibition at 0.5 µM is 2.4%, the inhibition at 5 µM was -2.2% and the inhibition at 50 µM was 13.6%. The compound also displayed a Cell survival rate/% in data set [1] (RAW 264.7, 0.5 μM) of 128.3%. Moreover, the Cell survival rate/% in data set [1] (RAW 264.7, 5 μM) was 98.8%. Further, the Cell survival rate/% in data set [1] (RAW 264.7, 50 μM) came to 97.3%. Moreover, in data set [4], the inhibition at 1 µM amounted to 17% and the inhibition at 10 µM came out at 54.5%.

As for `CCOc1cc2c(cc1OC)CCN(C=O)C2CCc1c[nH]c2ccccc12` (centres unmarked) [Compound A4, 1-(2-(1H-indol-3-yl)ethyl)-7-ethoxy-6-methoxy-3,4-dihydroisoquinoline-2(1H)-formaldehyde], the Cell survival rate/% in data set [1] (RAW 264.7, 0.5 μM) turned out to be 100.6%; in data set [1] (RAW 264.7, 5 μM) it was 113.4%; in data set [1] (RAW 264.7, 50 μM) it was 95.3%.

`CCOc1cc2c(cc1OC)CCN(C=O)[C@H]2Cc1c[nH]c2ccc(OC)cc12` [(S)-C18, (S)-7-ethoxy-6-methoxy-1-((5-methoxy-1H-indol-3-yl)methyl)-3,4-dihydroisoquinoline-2(1H)-formaldehyde]: in data set [3], the inhibition at 0.5 µM stood at 15.8%, the inhibition at 5 µM was found to be 14.5% and the inhibition at 50 µM came to 38.8%. In data set [1] (RAW 264.7, 0.5 μM), this compound yielded a Cell survival rate/% of 118%. Also, the Cell survival rate/% in data set [1] (RAW 264.7, 5 μM) was determined as 111.5%. In data set [1] (RAW 264.7, 50 μM), this compound yielded a Cell survival rate/% of 112.9%. Besides, the inhibition at 10 µM in data set [4] amounted to 39.4%.

`COc1cc2c(cc1OCC1CC1)[C@H](CCc1c[nH]c3cc(C)ccc13)N(C=O)CC2` [(S)-C4, (S)-7-(cyclopropylmethoxy)-6-methoxy-1-(2-(6-methyl-1H-indol-3-yl)ethyl)-3,4-dihydroisoquinoline-2(1H)-formaldehyde]: in data set [3], the inhibition at 0.5 µM was -30.1%, the inhibition at 5 µM is -25.6% and the inhibition at 50 µM is 54.5%. The Cell survival rate/% in data set [1] (RAW 264.7, 0.5 μM) was 97.6%. Also, the Cell survival rate/% in data set [1] (RAW 264.7, 5 μM) stood at 71.8%. In data set [1] (RAW 264.7, 50 μM), the Cell survival rate/% amounted to 77.3%. In data set [4], 2.12 µM corresponded to half-maximal inhibition (IC50), the inhibition at 1 µM was determined as 32% and the inhibition at 10 µM was determined as 76.9%.

For the compound `CCOc1cc2c(cc1OC)CCN(C=O)C2Cc1c[nH]c2ccccc12` (centres unmarked) [Compound C10, 1-((1H-indol-3-yl)methyl)-7-ethoxy-6-methoxy-3,4-dihydroisoquinoline-2(1H)-formaldehyde], the Cell survival rate/% in data set [1] (RAW 264.7, 0.5 μM) was found to be 119.5%; in data set [1] (RAW 264.7, 5 μM), 111.4%; in data set [1] (RAW 264.7, 50 μM), 94%.

Turning to `CCOc1cc2c(cc1OC)CCN(C=O)[C@H]2CCc1c[nH]c2ccccc12` [(S)-A4, (S)-1-(2-(1H-indol-3-yl)ethyl)-7-ethoxy-6-methoxy-3,4-dihydroisoquinoline-2(1H)-formaldehyde], the Cell survival rate/% turned out to be 103% in data set [1] (RAW 264.7, 0.5 μM); 100.8% in data set [1] (RAW 264.7, 5 μM); 98.1% in data set [1] (RAW 264.7, 50 μM).

On to `COCC(=O)N1CCc2cc(OC)c(OC)cc2C1Cc1c[nH]c2ccccc12` (centres unmarked) [Compound C11, 1-(1-((1H-indol-3-yl)methyl)-6,7-dimethoxy-3,4-dihydroisoquinoline-2(1H)-yl)-2-methoxyethane-1-one], for which, in data set [3], the inhibition at 0.5 µM is -12.7%, the inhibition at 5 µM was -11.9% and the inhibition at 50 µM came out at 20.1%. The compound further came in with a Cell survival rate/% in data set [1] (RAW 264.7, 0.5 μM) of 97.9%. The compound further gave a Cell survival rate/% in data set [1] (RAW 264.7, 5 μM) of 91.2%. This compound also gave a Cell survival rate/% in data set [1] (RAW 264.7, 50 μM) of 87.3%. Moreover, in data set [4], the inhibition at 1 µM was 39.9% and the inhibition at 10 µM worked out at 50%.

For `COc1cc2c(cc1OC)[C@H](Cc1c[nH]c3ccccc13)N(C(=O)CS(C)(=O)=O)CC2` [(S)-C13, (S)-1-(1-((1H-indol-3-yl)methyl)-6,7-dimethoxy-3,4-dihydroisoquinoline-2(1H)-yl)-2-(methanesulfonyl)ethane-1-one], the inhibition at 0.5 µM in data set [3] was -3%. Also, the inhibition at 5 µM in data set [3] was -13.7%. Besides, the inhibition at 50 µM in data set [3] is -37.3%. Further, the Cell survival rate/% is on record as 111.2% in data set [1] (RAW 264.7, 0.5 μM); 91.4% in data set [1] (RAW 264.7, 5 μM); 101.7% in data set [1] (RAW 264.7, 50 μM). In addition, the inhibition at 10 µM in data set [4] was 29.9%.

As for `COc1cc2c(cc1OCC1CC1)C(CCc1c[nH]c3ccccc13)N(C=O)CC2` (centres unmarked) [Compound A3, 1-(2-(1H-indol-3-yl)ethyl)-7-(cyclopropyl-methoxy)-6-methoxy-3,4-dihydroisoquinoline-2(1H)-formaldehyde], in data set [3], the inhibition at 0.5 µM is -0.5%, the inhibition at 5 µM is -15.5% and the inhibition at 50 µM was found to be 27.3%. Besides, the Cell survival rate/% in data set [1] (RAW 264.7, 0.5 μM) is recorded as 96.9%. In addition, the Cell survival rate/% in data set [1] (RAW 264.7, 5 μM) is 108.2%. Also, the Cell survival rate/% in data set [1] (RAW 264.7, 50 μM) worked out at 94%. Further, in data set [4], the IC50 was determined as 5.69 µM, the inhibition at 1 µM turned out to be 0.84% and the inhibition at 10 µM turned out to be 65.7%.

Regarding `CCOc1cc2c(cc1OC)CCN(C(=O)CS(C)(=O)=O)[C@H]2Cc1c[nH]c2ccccc12` [(S)-C15, (S)-1-(1-((1H-indol-3-yl)methyl)-7-ethoxy-6-methoxy-3,4-dihydroisoquinoline-2(1H)-yl)-2-(methanesulfonyl)ethane-1-one], in data set [3], the inhibition at 0.5 µM turned out to be 18%, the inhibition at 5 µM is -4.5% and the inhibition at 50 µM was -37.7%. This compound yielded a Cell survival rate/% in data set [1] (RAW 264.7, 0.5 μM) of 107.3%. The compound further registered a Cell survival rate/% in data set [1] (RAW 264.7, 5 μM) of 110.5%. The Cell survival rate/% in data set [1] (RAW 264.7, 50 μM) is 101.2%. In addition, in data set [4], the inhibition at 10 µM is -23.9%.

With `COc1cc2c(cc1OC)C(Cc1c[nH]c3ccccc13)N(CCS(C)(=O)=O)CC2` (centres unmarked) [Compound C12, 1-((1H-indol-3-yl)methyl)-6,7-dimethoxy-2-(2-(methylsulfonyl)ethyl)-1,2,3,4-tetrahydroisoquinoline], in data set [3], the inhibition at 0.5 µM is -15.1%, the inhibition at 5 µM was -7.9% and the inhibition at 50 µM was determined as 25.5%. The compound also showed a Cell survival rate/% in data set [1] (RAW 264.7, 0.5 μM) of 93.6%. Besides, in data set [1] (RAW 264.7, 5 μM), the Cell survival rate/% was determined as 115.7%. The Cell survival rate/% in data set [1] (RAW 264.7, 50 μM) is reported as 103.8%. Further, in data set [4], the inhibition at 1 µM was found to be 45.4% and the inhibition at 10 µM turned out to be 52.7%.
